Like-named read-outs stand apart in the source and are kept apart here.
Experiments:
Type in all cases: cell-based
TEX cells [1] = assay: Propidium iodide staining and flow cytometry (Example 6); details: increasing concentrations up to 10 micromolar
Method: Avocadyne, avocadene and avocatin B were tested for their toxicity to leukemic cells using TEX cells. The TEX cells were treated with increasing concentrations of each lipid (up to 10 micromolar) and subsequently stained with propidium iodide (PI), which stains only dead cells. The percent viability was measured using flow cytometry gating on PI positive and PI negative cells.

TEX leukemia cells = assay: MTS cell growth and viability assay, 72 hours
Method: Leukemia (OCI-AML2) cells were cultured in Iscove's Modified Dulbecco's Medium (IMDM) (Life Technologies; Grand Island, N.Y.) supplemented with 10% Fetal Bovine Serum (FBS; Seradigm; Providence, Utah) and antibiotics ([…]; Sigma Chemical; St. Louis, Mo.). TEX leukemia cells were cultured in 15% FBS, antibiotics and 2 mM L-glutamine (Sigma Chemical), 20 ng/ml stem cell factor and 2 ng/ml IL-3 (Peprotech; Hamburg Germany). Primary human samples (fresh and frozen) were obtained from the peripheral blood of AML patients who had at least 80% malignant cells among the mononuclear cells and cultured at 37° C. in IMDM, 20% FBS and antibiotics (see table 1a and 1 b for clinical parameters). […] Cell growth and viability was measured using the 3-(4,5-dimethylthiazol-2-yl)-5-(3-carboxymethoxyphenyl)-2-(4-sulfophenyl)-2H-tetrazolium inner salt (MTS) reduction assay (Promega; Madison, Wis.) according to the manufacturer's protocol and as previously described^7. Cells were seeded in 96-well plates, treated with drug for 72 hours and optical density (OD) was measured at 490 nm. Cell viability was also assessed by the trypan blue exclusion assay and by Annexin V and PI staining (Biovision; Mountainview, Calif.), as previously described^7. […] After 72 hours, cell proliferation and viability were measured by the MTS assay.

TEX cells [2] = assay: Reactive oxygen species detection (DCFH-DA, DHE, flow cytometry)
Description: Reactive oxygen species (ROS) were detected using 2′,7′dichlorohydrofluorescein-diacetate (DCFH-DA; Sigma Chemical) and dihyodroethidium (DHE; Sigma Chemical). DCFH-DA is hydrolyzed by intracellular esterase to produce a non-fluorescent DCFH product. It can then be oxidized by ROS to produce a highly fluorescent DCF product^14. DHE is a superoxide indicator which upon contact with superoxide anions produces the fluorescent product 2-hydroxyethidium^15. Following drug treatment, TEX cells (5×10^5) were collected and washed in PBS (Sigma-Aldrich). Cells were stained with 5 μM (final concentration) DCFH-DA or 10 μM DHE and allowed to incubate for 30 minutes in a humidified atmosphere containing 5% CO2 at 37° C. Samples were then washed in PBS and ROS was measured by flow cytometry using the Guava EasyCyte 8HT (Millipore). Data were analyzed with GuavaSoft 2.5 software (Millipore).

TEX cells [3] = assay: Hypoxia experiments, sulforhodamine B assay
Method: (A) Jurkat T cells were cultured in 50 ng/ml of ethidium bromide, […] sodium pyruvate and 50 μg/ml uridine for 60 days to create Jurkat-EtBr cells which lack functional mitochondrial. To confirm that Jurkat-EtBr cells lack mitochondria, the mitochondria specific markers adenine nucleotide translocator (ANT) and complex I (ND1) were measured by Western blotting. (B) Avocatin B's activity was tested in cells with (JURK) and with reduced (JURK-EtBr) mitochondria. Viability was measured by the ANN/PI assay and flow cytometry and data are presented as mean percentage of live cells (i.e., ANN/PI^−)±SD from representative experiments. […] Cell viability was measured by the sulforhodamine B assay, as described in the methods, following a 72 hour incubation period. Data are presented as percent viable. (D) Uncoupling protein 2 (UCP2) was measured in whole cell lysates of avocatin B (10 μM) or DMSO-control treated TEX cells by Western blotting. Arbitrary units (AU) are presented as fold change (compared to the 6 hour time point) and were calculated by dividing each treatment lane by the densitometry of its loading control. Densitometry was calculated as outlined in the methods.
Cell growth and viability were measured by the sulforhodamine B assay (Sigma Chemical) as previously described^8 following 72 hours of incubation.

[4] = system: fatty acid oxidation in TEX cells; assay: Fatty acid oxidation, oxygen consumption rate (Seahorse XF24); details: avocatin B 10 μM, etomoxir 100 μM, palmitate 175 μM
Method: Measurement of oxygen consumption rates were performed using a Seahorse XF24 extracellular flux analyzer (Seahorse Bioscience; North Billerica, Mass.). TEX cells were cultured in α-Minimum Essential Medium (Life Technologies) containing 1% FBS and plated at 1×10^5 cells/well in poly-L-Lysine (Sigma Chemical) coated XF24 plates. Cells were incubated with etomoxir (100 μM; Sigma Chemical) or vehicle control for 30 minutes at 37° C. in a humidified atmosphere containing 5% CO2. Next, palmitate (175 μM; Seahorse Bioscience) or avocatin B (10 μM) was added and immediately transferred to the XF24 analyzer. Oxidation of exogenous fatty acids was determined by measuring mitochondrial respiration through sequential injection of 5 μM (final concentration) oligomycin, an ATP synthase inhibitor, (Millipore, Billerica, Mass.), 5 μM CCCP, a hydrogen ion ionophore, (Sigma Chemical), and 5 μM rotenone (Millipore)/5 μM antimycin A, which inhibit complex III activity, (Sigma Chemical). Fatty acid oxidation was determined by the change in oxygen consumption following oligomycin and CCCP treatment and prior to antimycin and rotenone treatment, according to the manufacturer's protocol and as described in Abe et al. (2013)^13. Data were analyzed with XF software (Seahorse Bioscience).

TEX cells [5] = assay: NADPH, NADH and GSH fluorimetric detection; details: avocatin B 10 μM, etomoxir 100 μM; also in the presence of palmitate 175 μM
Method: Nicotinamide adenine dinucleotide phosphate (NADPH), nicotinamide adenine dinucleotide (NAD) and glutathione (GSH) were measured by commercially available fluorimetric kits (e.g. Amplite™ Fluorimetric kit (AAT Bioquest; Sunnyvale, Calif.) according to the manufacturers' protocol and as previously described^16, following incubation of increasing duration with avocatin B (10 μM). For NAPDH studies, cells were also incubated with palmitate (175 μM) in the presence or absence of etomoxir. For NADH and GSH studies, cells were incubated in the presence of palmitate and N-acetylcysteine (NAC; 1 mmol/L), respectively. Data are presented as a percent NAD, NADPH or GSH compared to control treated cells±SD.

TEX cells [6] = assay: ANN/PI viability of TEX cells with antioxidants or etomoxir; details: 100 μM, 72 hours
Method: FIG. 6: Avocatin B inhibits fatty acid oxidation resulting in reduced NADPH and elevated ROS. (A) Illustration of fatty acid oxidation in mitochondria. Long chain fatty acids (LCFA) enter the mitochondria via CPT1 for fatty acid oxidation to yield acetyl-CoA. Acetyl-CoA enters the TCA cycle to generate NADPH, an enzymatic co-factor and antioxidant. (ME: malic enzyme; IDH: isocitrate dehydrogenase; α-KG: α-ketoglutarate). (B) Oxidation of exogenous fatty acids was assessed by measuring the oxygen consumption rate (OCR) in TEX cells treated with palmitate (175 μM), avocatin B (10 μM), avocatin B and palmitate or palmitate and etomoxir (100 μM). […] Effects on fatty acid oxidation were measured with the Seahorse Bioanalyzer, as detailed in the methods section, and (C) quantified by peak area after oligomycin and CCCP treatment, as described by the manufacturer's protocol and detailed in the methods. […] Viability was measured by the ANN/PI assay and data are presented as mean percentage of viable cells (i.e., ANN^−/PI^−)±SD from representative experiments. […] Data, percentage of NADH compared with vehicle control-treated cells±SD; (H) GSH was measured in TEX cells in the presence or absence of NAC using a commercially available fluorimetric assay following treatment with avocatin B ([…]), according to the manufacturers protocol. […]

[7] = 72 hours, avocatin B 2 μM, antimycin A 1 μM, rotenone 3 μM, daunorubicin 5 nM, cytarabine 4 nM

For `C=CCCCCCCCCCCCC(O)CC(O)CO` (stereo not shown) [avocadene], the “amount of cell death (PI positive) in TEX cells, rank among the lipids” value (TEX cells [1]) was “least amount of cell death”.
`C#CCCCCCCCCCCCC(O)CC(O)COC(C)=O` (stereo not shown) [avocadyne acetate] was tested, and the “cytotoxicity toward TEX cells” value (TEX leukemia cells) was “induce cytotoxicity”, the “ROS activity of avocatin analogues” value (TEX cells [2]; Example 5, FIG. 12) was “induce ROS activity” and the “ROS activity of avocatin analogues” value (TEX cells [2]; Example 5, FIG. 12, listed as Avocadyne Acetate) was “induce ROS production”.
For `C#CCCCCCCCCCCCC(O)CC(O)CO` (stereo not shown) [avocadyne], the “cytotoxicity toward TEX cells” value (TEX leukemia cells) was “induce cytotoxicity”, the “ROS activity of avocatin analogues” value (TEX cells [2]; Example 5, FIG. 12) was “induce ROS activity” and the “ROS activity of avocatin analogues” value (TEX cells [2]; Example 5, FIG. 12, listed as Avoadyne) was “induce ROS production”. The “amount of cell death (PI positive) in TEX cells, rank among the lipids” value (TEX cells [1]) was “greatest amount of cell death”.
In the case of `COc1cccc2c1C(=O)c1c(O)c3c(c(O)c1C2=O)C[C@@](O)(C(C)=O)C[C@@H]3O[C@H]1C[C@H](N)[C@H](O)[C@H](C)O1` [daunorubicin], the “activity in hypoxic (1% oxygen) versus normoxic (21% oxygen) conditions” value (shortened to “activity in hypoxic … (21% oxygen) conditions”) (TEX cells [3]; [7]) is reported as “unaffected”.
In the case of `CCOC(=O)[C@@]1(CCCCCCOc2ccc(Cl)cc2)CO1` [etomoxir], the “oxidation of exogenous palmitate (oxygen consumption rate)” value [4] is reported as “blocked”, the “reduction in NADPH” value (TEX cells [5]) is reported as ~50% and the “effect of etomoxir on TEX viability” value (TEX cells [6]) is reported as “does not impart toxicity”. The “effect of etomoxir on TEX viability” value (TEX cells [6]; listed as Etomoxir) was “did not reduce viability”.
For `C=C(C)[C@H]1Cc2c(ccc3c2O[C@@H]2COc4cc(OC)c(OC)cc4[C@@H]2C3=O)O1` [rotenone], the “activity in hypoxic … (21% oxygen) conditions” value (TEX cells [3]; [7]) was “reduced”.
antimycin was tested, and the “activity in hypoxic … (21% oxygen) conditions” value (TEX cells [3]; [7]) was “reduced”.
In the case of cytarabine, the “activity in hypoxic … (21% oxygen) conditions” value (TEX cells [3]) is reported as “unaffected”.
